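Method: 48-hour compound exposure of cells in 96-well plates, five concentrations, linear interpolation of endpoints. TGI marks complete inhibition of growth.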
Experiments:
Assay in all cases: NCI anticancer screen, dose series, 48 h
OVCAR-3 ovarian = test system: OVCAR-3 ovarian
ACHN renal = test system: ACHN renal
RXF 393 renal = test system: RXF 393 renal
MDA-N = test system: MDA-N
COLO 205 colon = test system: COLO 205 colon
MDA-MB-435 = test system: MDA-MB-435
DU-145 prostate = test system: DU-145 prostate
CAKI-1 renal = test system: CAKI-1 renal
U251 CNS = test system: U251 CNS
MCF7 breast = test system: MCF7 breast
SK-MEL-2 melanoma = test system: SK-MEL-2 melanoma
NCI-H23 lung = test system: NCI-H23 lung
MDA-MB-231 breast = test system: MDA-MB-231 breast
HOP-92 NSCLC = test system: HOP-92 NSCLC
OVCAR-5 ovarian = test system: OVCAR-5 ovarian
NCI/ADR-RES ovarian = test system: NCI/ADR-RES ovarian
SW-620 colon = test system: SW-620 colon
A549 NSCLC = test system: A549 NSCLC
LOX IMVI melanoma = test system: LOX IMVI melanoma
HCT-15 colon = test system: HCT-15 colon
HT29 colon = test system: HT29 colon
NCI-H522 lung = test system: NCI-H522 lung
CCRF-CEM leukemia = test system: CCRF-CEM leukemia
UACC-62 melanoma = test system: UACC-62 melanoma
MALME-3M melanoma = test system: MALME-3M melanoma
SF-539 CNS = test system: SF-539 CNS
TK-10 renal = test system: TK-10 renal
EKVX NSCLC = test system: EKVX NSCLC
OVCAR-8 ovarian = test system: OVCAR-8 ovarian
HOP-62 NSCLC = test system: HOP-62 NSCLC
MOLT-4 leukemia = test system: MOLT-4 leukemia
RPMI-8226 leukemia = test system: RPMI-8226 leukemia
SN12C renal = test system: SN12C renal
T-47D breast = test system: T-47D breast
SF-295 CNS = test system: SF-295 CNS
UO-31 renal = test system: UO-31 renal
OVCAR-4 ovarian = test system: OVCAR-4 ovarian
NCI-H460 lung = test system: NCI-H460 lung
SF-268 CNS = test system: SF-268 CNS
A498 renal = test system: A498 renal
UACC-257 melanoma = test system: UACC-257 melanoma
HCT-116 colon = test system: HCT-116 colon
HL-60(TB) leukemia = test system: HL-60(TB) leukemia
SNB-19 CNS = test system: SNB-19 CNS
SR leukemia = test system: SR leukemia
IGROV1 ovarian = test system: IGROV1 ovarian
HS 578T breast = test system: HS 578T breast
PC-3 prostate = test system: PC-3 prostate
SK-OV-3 ovarian = test system: SK-OV-3 ovarian
BT-549 breast = test system: BT-549 breast
KM12 colon = test system: KM12 colon
SK-MEL-28 melanoma = test system: SK-MEL-28 melanoma
SK-MEL-5 melanoma = test system: SK-MEL-5 melanoma
HCC-2998 colon = test system: HCC-2998 colon
M14 melanoma = test system: M14 melanoma
786-0 renal = test system: 786-0 renal
NCI-H226 lung = test system: NCI-H226 lung
K-562 leukemia = test system: K-562 leukemia

With `O=C1c2ccc(O)cc2OC(c2cc(O)c(O)c(O)c2)C1O` (stereo unspecified) the TGI (OVCAR-3 ovarian) was > 100 µM, the TGI (ACHN renal) was 48.9 µM and the TGI (RXF 393 renal) was > 100 µM. It also gave a TGI (MDA-N) of 34 µM, a TGI (COLO 205 colon) of 83.3 µM and a TGI (MDA-MB-435) of 43.2 µM. For the same compound, the TGI (DU-145 prostate) was > 100 µM, the TGI (CAKI-1 renal) was > 100 µM and the TGI (U251 CNS) was 48.7 µM. The TGI (MCF7 breast) was 51.9 µM, the TGI (SK-MEL-2 melanoma) was > 100 µM and the TGI (NCI-H23 lung) was > 100 µM. For the same compound, the TGI (MDA-MB-231 breast) was 39.7 µM, the TGI (HOP-92 NSCLC) was > 100 µM and the TGI (OVCAR-5 ovarian) was > 100 µM. For the same compound, the TGI (NCI/ADR-RES ovarian) was 52.9 µM, the TGI (SW-620 colon) was 70.3 µM and the TGI (A549 NSCLC) was > 100 µM. The TGI (LOX IMVI melanoma) was 38.5 µM, the TGI (HCT-15 colon) was > 100 µM and the TGI (HT29 colon) was 43.9 µM. For the same compound, the TGI (NCI-H522 lung) was 58.7 µM, the TGI (CCRF-CEM leukemia) was 55.9 µM and the TGI (UACC-62 melanoma) was > 100 µM. For the same compound, the TGI (MALME-3M melanoma) was > 100 µM, the TGI (SF-539 CNS) was 52.7 µM and the TGI (TK-10 renal) was 69.3 µM. For the same compound, the TGI (EKVX NSCLC) was 39.3 µM, the TGI (OVCAR-8 ovarian) was 38.4 µM and the TGI (HOP-62 NSCLC) was > 100 µM. The TGI (MOLT-4 leukemia) was 51.7 µM, the TGI (RPMI-8226 leukemia) was 48.6 µM and the TGI (SN12C renal) was 36.6 µM. For the same compound, the TGI (T-47D breast) was 85.9 µM, the TGI (SF-295 CNS) was 39.9 µM and the TGI (UO-31 renal) was > 100 µM. For the same compound, the TGI (OVCAR-4 ovarian) was > 100 µM, the TGI (NCI-H460 lung) was 39.5 µM and the TGI (SF-268 CNS) was > 100 µM. The TGI (A498 renal) was 73.5 µM, the TGI (UACC-257 melanoma) was > 100 µM and the TGI (HCT-116 colon) was 41 µM. The TGI (HL-60(TB) leukemia) was 48.4 µM, the TGI (SNB-19 CNS) was > 100 µM and the TGI (SR leukemia) was 56.5 µM. For the same compound, the TGI (IGROV1 ovarian) was 39.1 µM, the TGI (HS 578T breast) was > 100 µM and the TGI (PC-3 prostate) was > 100 µM. For the same compound, the TGI (SK-OV-3 ovarian) was > 100 µM, the TGI (BT-549 breast) was 48 µM and the TGI (KM12 colon) was 67.1 µM. For the same compound, the TGI (SK-MEL-28 melanoma) was > 100 µM, the TGI (SK-MEL-5 melanoma) was > 100 µM and the TGI (HCC-2998 colon) was > 100 µM. For the same compound, the TGI (M14 melanoma) was > 100 µM, the TGI (786-0 renal) was 45.4 µM and the TGI (NCI-H226 lung) was > 100 µM.

Work on `CN(C)c1ccc(/C=C/c2ccc3ccccc3[n+]2C)cc1` yielded a TGI (OVCAR-3 ovarian) of 15.5 µM, a TGI (ACHN renal) of 55.3 µM and a TGI (RXF 393 renal) of 9.84 µM. For the same compound, the TGI (MDA-N) was 13 µM, the TGI (MDA-MB-435) was 13.3 µM and the TGI (DU-145 prostate) was 25.5 µM. It also gave a TGI (U251 CNS) of 20.7 µM, a TGI (MCF7 breast) of 14.4 µM and a TGI (SK-MEL-2 melanoma) of 4.02 µM. The TGI (NCI-H23 lung) was 9.26 µM, the TGI (MDA-MB-231 breast) was 12.6 µM and the TGI (HOP-92 NSCLC) was 5.19 µM. For the same compound, the TGI (OVCAR-5 ovarian) was 26.2 µM, the TGI (NCI/ADR-RES ovarian) was > 100 µM and the TGI (SW-620 colon) was 12.3 µM. For the same compound, the TGI (A549 NSCLC) was 22.5 µM, the TGI (HCT-15 colon) was 30.4 µM and the TGI (HT29 colon) was 8.46 µM. For the same compound, the TGI (CCRF-CEM leukemia) was 24.6 µM, the TGI (UACC-62 melanoma) was 41 µM and the TGI (MALME-3M melanoma) was 11.2 µM. For the same compound, the TGI (TK-10 renal) was 17.7 µM, the TGI (EKVX NSCLC) was 5.85 µM and the TGI (OVCAR-8 ovarian) was 4.3 µM. For the same compound, the TGI (HOP-62 NSCLC) was 25.6 µM, the TGI (MOLT-4 leukemia) was 4.53 µM and the TGI (SN12C renal) was 15.8 µM. For the same compound, the TGI (T-47D breast) was 6.26 µM, the TGI (SF-295 CNS) was 10 µM and the TGI (UO-31 renal) was 9.62 µM. It also gave a TGI (NCI-H460 lung) of 12 µM, a TGI (A498 renal) of 60.1 µM and a TGI (HCT-116 colon) of 10.9 µM. The TGI (HL-60(TB) leukemia) was 3.48 µM, the TGI (SNB-19 CNS) was > 100 µM and the TGI (SR leukemia) was 4.34 µM. For the same compound, the TGI (K-562 leukemia) was > 100 µM, the TGI (IGROV1 ovarian) was > 100 µM and the TGI (HS 578T breast) was > 100 µM. The TGI (PC-3 prostate) was 9.84 µM, the TGI (SK-OV-3 ovarian) was 60.6 µM and the TGI (BT-549 breast) was 10.5 µM. The TGI (KM12 colon) was 13.6 µM, the TGI (SK-MEL-28 melanoma) was 12.7 µM and the TGI (SK-MEL-5 melanoma) was 13.5 µM. For the same compound, the TGI (HCC-2998 colon) was 16.3 µM, the TGI (M14 melanoma) was 17.1 µM and the TGI (786-0 renal) was > 100 µM. The TGI (NCI-H226 lung) was 13.3 µM.

Source: PubChem BioAssay (NCI)
